Measurements as given in patent publication US12655116B2, “Substituted isophthalic acid diamides” (Bayer Aktiengesellschaft, priority 2020, dated 2026).

Legend:
STEME [1] = assay: Pre-emergence herbicidal action against STEME; type: in vivo, Stellaria media; conditions: Stellaria media, 504 h
How it was run: (§1)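 Seeds sown in sandy loam, soil-covered; compound sprayed on soil surface pre-emergence. Application: WP/EC, 600–800 l/ha, 0.2% wetting agent. Readout: visual % damage at 3 weeks.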

AMARE [2] = assay: Post-emergence herbicidal action against AMARE; type: in vivo, Amaranthus retroflexus; conditions: Amaranthus retroflexus, 504 h, 20 g/ha, visual assessment about 3 weeks after treatment, 100% = plants have died, 0% = like control plants
How it was run: (§2)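 Percent herbicidal action is rated by eye about 3 weeks after treatment against untreated controls, where 100% means dead plants and 0% means like controls. Plants in sandy loam are sprayed on green parts at the one-leaf stage with aqueous WP or EC preparations at 600 to 800 l/ha plus 0.2% wetting agent.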

VERPE [3] = assay: Post-emergence herbicidal action against VERPE; type: in vivo, Veronica persica; conditions: Veronica persica, 504 h, 20 g/ha
How it was run: as §2

ECHCG [4] = assay: Pre-emergence herbicidal action against ECHCG; type: in vivo, Echinochloa crus-galli; conditions: Echinochloa crus-galli, 504 h, 80 g/ha
How it was run: as §1

DIGSA [5] = assay: Pre-emergence herbicidal action against DIGSA; type: in vivo, Digitaria sanguinalis; conditions: Digitaria sanguinalis, 504 h
How it was run: as §1

MATIN [6] = assay: Post-emergence herbicidal action against MATIN; type: in vivo, Matricaria inodora; conditions: Tripleurospermum inodorum, 504 h
How it was run: as §2

DIGSA [7] = assay: Post-emergence herbicidal action against DIGSA; type: in vivo, Digitaria sanguinalis; conditions: Digitaria sanguinalis, 504 h
How it was run: as §2

MATIN [8] = assay: Pre-emergence herbicidal action against MATIN; type: in vivo, Matricaria inodora; conditions: Tripleurospermum inodorum, 504 h
How it was run: as §1

PHBPU [9] = assay: Post-emergence herbicidal action against PHBPU; type: in vivo, Pharbitis purpurea; conditions: Ipomoea purpurea, 504 h
How it was run: as §2

LOLRI = assay: Pre-emergence herbicidal action against LOLRI; type: in vivo, Lolium rigidum; conditions: Lolium rigidum, 504 h, 80 g/ha
How it was run: as §1

PHBPU [10] = assay: Pre-emergence herbicidal action against PHBPU; type: in vivo, Pharbitis purpurea; conditions: Ipomoea purpurea, 504 h, dosage 80 g/ha
How it was run: as §1

STEME [11] = assay: Post-emergence herbicidal action against STEME; type: in vivo, Stellaria media; conditions: Stellaria media, 504 h, 20 g/ha
How it was run: as §2

ABUTH [12] = assay: Pre-emergence herbicidal action against ABUTH; type: in vivo, Abutilon theophrasti; conditions: Abutilon theophrasti, 504 h
How it was run: as §1

ALOMY = assay: Pre-emergence herbicidal action against ALOMY; type: in vivo, Alopecurus myosuroides; conditions: Alopecurus myosuroides, 504 h; 80 g/ha, pre-emergence, scored visually after 3 weeks vs untreated controls (100% = plants have died, 0% = like control plants)
How it was run: as §1

VIOTR [13] = assay: Post-emergence herbicidal action against VIOTR; type: in vivo, Viola tricolor; conditions: Viola tricolor, 504 h
How it was run: as §2

VIOTR [14] = assay: Pre-emergence herbicidal action against VIOTR; type: in vivo, Viola tricolor; conditions: Viola tricolor, 504 h
How it was run: as §1

AVEFA = assay: Pre-emergence herbicidal action against AVEFA; type: in vivo, Avena fatua; conditions: Avena fatua, 504 h; 80 g/ha, pre-emergence
How it was run: as §1

AMARE [15] = assay: Pre-emergence herbicidal action against AMARE; type: in vivo, Amaranthus retroflexus; conditions: Amaranthus retroflexus, 504 h, scored visually after 3 weeks vs untreated controls, 100% = plants have died, 0% = like control plants
How it was run: as §1

VERPE [16] = assay: Pre-emergence herbicidal action against VERPE; type: in vivo, Veronica persica; conditions: Veronica persica, 504 h, dosage 80 g/ha
How it was run: as §1

SETVI [17] = assay: Pre-emergence herbicidal action against SETVI; type: in vivo, Setaria viridis; conditions: Setaria viridis, 504 h, dosage 80 g/ha
How it was run: as §1

POLCO = assay: Pre-emergence herbicidal action against POLCO; type: in vivo, Polygonum convolvulus; conditions: Fallopia convolvulus, 504 h
How it was run: as §1

ECHCG [18] = assay: Post-emergence herbicidal action against ECHCG; type: in vivo, Echinochloa crus-galli; conditions: Echinochloa crus-galli, 504 h
How it was run: as §2

ABUTH [19] = assay: Post-emergence herbicidal action against ABUTH; type: in vivo, Abutilon theophrasti; conditions: Abutilon theophrasti, 504 h, visual assessment about 3 weeks after treatment vs untreated controls
How it was run: as §2

SETVI [20] = assay: Post-emergence herbicidal action against SETVI; type: in vivo, Setaria viridis; conditions: Setaria viridis, 504 h, dosage 20 g/ha
How it was run: as §2

CCNC(=O)c1c(C(F)F)ccc(C(=O)Nc2nnnn2C)c1C [Example 1-45]
80%: pest or weed control at 20 g/ha (VERPE [3]) | pest or weed control at 5 g/ha (MATIN [6]; dosage 5 g/ha) | pest or weed control at 20 g/ha (MATIN [6]; dosage 20 g/ha) | pest or weed control at 5 g/ha (DIGSA [7]; 5 g/ha) | pest or weed control at 20 g/ha (DIGSA [7]; 20 g/ha) | pest or weed control at 5 g/ha (PHBPU [9]; dosage 5 g/ha) | pest or weed control at 20 g/ha (PHBPU [9]; dosage 20 g/ha) | pest or weed control at 80 g/ha (LOLRI) | pest or weed control at 20 g/ha (STEME [11]) | pest or weed control at 20 g/ha (ABUTH [12]; dosage 20 g/ha, scored visually after 3 weeks vs untreated controls, 100% = plants have died, 0% = like control plants, read-out: Pre-emergence action against ABUTH (herbicidal activity in percent)) | pest or weed control at 5 g/ha (VIOTR [13]; 5 g/ha) | pest or weed control at 20 g/ha (VIOTR [14]; dosage 20 g/ha) | pest or weed control at 5 g/ha (ECHCG [18]; dosage 5 g/ha) | pest or weed control at 20 g/ha (ECHCG [18]; dosage 20 g/ha) | pest or weed control at 5 g/ha (ABUTH [19]; dosage 5 g/ha) | pest or weed control at 20 g/ha (SETVI [20])
100%: pest or weed control at 20 g/ha (DIGSA [5]; dosage 20 g/ha) | pest or weed control at 80 g/ha (DIGSA [5]; dosage 80 g/ha) | pest or weed control at 20 g/ha (MATIN [8]; dosage 20 g/ha) | pest or weed control at 80 g/ha (MATIN [8]; dosage 80 g/ha) | pest or weed control at 80 g/ha (ABUTH [12]; 80 g/ha, scored visually after 3 weeks vs untreated controls (100% = plants have died, 0% = like control plants)) | pest or weed control at 80 g/ha (VIOTR [14]; dosage 80 g/ha) | pest or weed control at 20 g/ha (AMARE [15]; 20 g/ha) | pest or weed control at 80 g/ha (AMARE [15]; 80 g/ha) | pest or weed control at 80 g/ha (SETVI [17])
90%: pest or weed control at 20 g/ha (STEME [1]; dosage 20 g/ha) | pest or weed control at 80 g/ha (STEME [1]; dosage 80 g/ha) | pest or weed control at 20 g/ha (AMARE [2]) | pest or weed control at 80 g/ha (ECHCG [4]) | pest or weed control at 80 g/ha (PHBPU [10]) | pest or weed control at 80 g/ha (ALOMY) | pest or weed control at 20 g/ha (VIOTR [13]; 20 g/ha) | pest or weed control at 80 g/ha (AVEFA) | pest or weed control at 80 g/ha (VERPE [16]) | pest or weed control at 20 g/ha (POLCO; dosage 20 g/ha) | pest or weed control at 80 g/ha (POLCO; dosage 80 g/ha) | pest or weed control at 20 g/ha (ABUTH [19]; dosage 20 g/ha)
